Reference: patent US6855730B2, “3-methylidenyl-2-indolinone modulators of protein kinase” (Sugen, Inc., priority 1998, dated 2005)

Molecular target: T1, 3T3 cell line genetically engineered to express human EGF-R (Homo sapiens, UniProt P00533)
T1 construct: expressed in transfected cells; host or cells: 3T3
Assay: EGF-induced BrdU incorporation assay
Type: cell-based
Settings: read-out: BrdU EGF driven IC50
Experimental: The cellular/catalytic assays described herein are performed in an ELISA format. The general procedure is as follows: a compound is introduced to cells expressing the test kinase, either naturally or recombinantly, for a selected period of time after which, if the test kinase is a receptor, a ligand known to activate the receptor is added. The cells are lysed and the lysate is transferred to the wells of an ELISA plate previously coated with a specific antibody recognizing the substrate of the enzymatic phosphorylation reaction. Non-substrate components of the cell lysate are washed away and the amount of phosphorylation on the substrate is detected with an antibody specifically recognizing phosphotyrosine compared with control cells that were not contacted with a test compound. The cellular/biologic assays described herein measure the amount of DNA made in response to activation of a test kinase, which is a general measure of a proliferative response. The general procedure for this assay is as follows: a compound is introduced to cells expressing the test kinase, either naturally or recombinantly, for a selected period of time after which, if the test kinase is a receptor, a ligand known to activate the receptor is added. After incubation at least overnight, a DNA labeling reagent such as Bromodeoxyuridine (BrdU) or 3H-thymidine is added. The amount of labeled DNA is detected with either an anti-BrdU antibody or by measuring radioactivity and is compared to control cells not contacted with a test compound. […]
Protocol • (1) Cells are seeded at 8000 cells/well in 10% CS, 2mM Gin in DMEM, in a 96 well plate. Cells are incubated overnight at 37° C. in 5% CO2. • (2) After 24 hours, the cells are washed with PBS, and then are serum starved in serum free medium (0% CS DMEM with 0.1% BSA) for 24 hours. • (3) On day 3, ligand (EGF, 2 nM, prepared in DMEM with 0.1% BSA) and test compounds are added to the cells simultaneously. The negative control wells receive serum free DMEM with 0.1% BSA only, the positive control cells receive the ligand (EGF) but no test compound. Test compounds are prepared in serum free DMEM with ligand in a 96 well plate, and serially diluted for 7 test concentrations. • (4) After 20 hours of ligand activation, diluted BrdU labeling reagent (1:100 in DMEM, 0.1% BSA) is added and the cells are incubated with BrdU (final concentration=10 μM) for 1.5 hours. • (5) After incubation with labeling reagent, the medium is removed by decanting and tapping the inverted plate on a paper towel. FixDenat solution is added (50 μl/well) and the plates are incubated at room temperature for 45 minutes on a plate shaker. • (6) The FixDenat solution is thoroughly removed by decanting and tapping the inverted plate on a paper towel. Milk is added (5% dehydrated milk in PBS, 200 μl/well) as a blocking solution and the plate is incubated for 30 minutes at room temperature on a plate shaker. • (7) The blocking solution is removed by decanting and the wells are washed once with PBS. Anti-BrdU-POD solution (1:100 dilution in PBS, 1% BSA) is added (100 μ/well) and the plate is incubated for 90 minutes at room temperature on a plate shaker. • (8) The antibody conjugate is thoroughly removed by decanting and rinsing the wells 5 times with PBS, and the plate is dried by inverting and tapping on a paper towel. • (9) TMB substrate solution is added (100 μl/well) and incubated for 20 minutes at room temperature on a plate shaker until color development is sufficient for photometric detection. • (10) The absorbance of the samples are measured at 410 nm (in “dual wavelength” mode with a filter reading at 490 nm, as a reference wavelength) on a Dynatech ELISA plate reader.

| Structure (SMILES) | IC50 [µM] |
| --- | --- |
| COc1cc(C)c(C=C2C(=O)Nc3ccc(Cl)cc32)cc1C(C)C [Example 9, 5-Chloro-3-(5-isopropyl-4-methoxy-2-methylbenzylidene)-1,3-dihydroindol-2-one] | 11 |
| COc1ccc(/C=C2/C(=O)Nc3ccc(Br)cc32)cc1-c1ccccc1 [Example 13, 5-Bromo-3-(6-methoxybiphenyl-3-ylmethylene)-1,3-dihydroindol-2-one] | 26.6 |
| COc1ccc(/C=C2/C(=O)Nc3ccccc32)cc1-c1ccsc1 [Example 35, 3-(4-Methoxy-3-thiophen-3-ylbenzylidene)-1,3-dihydroindol-2-one] | 28.1 |
| COc1ccc(/C=C2/C(=O)Nc3ccccc32)cc1C1CCCCC1 [Example 12, 3-(3-Cyclohexyl-4-methoxybenzylidene)-1,3-dihydroindol-2-one] | 30.6 |
| COc1ccc(/C=C2/C(=O)Nc3ccc(CCN4CCOCC4)cc32)cc1-c1ccsc1 [Example 26, 3-(4-Methoxy-3-thiophen-3-ylbenzylidene)-5-(2-morpholin-4-yl-ethyl)-1,3-dihydroindol-2-one] | > 50 |
| COc1c(C)cc(/C=C2/C(=O)Nc3ccc(Cl)cc32)cc1C [Example 21, 5-Chloro-3-(4-methoxy-3,5-dimethylbenzylidene)-1,3-dihydroindol-2-one] | 8 |
| COc1c(C(C)C)cc(/C=C2/C(=O)Nc3ccc(C)cc32)cc1C(C)C [Example 19, 3-(3,5-Diisopropyl-4-methoxybenzylidene)-5-methyl-1,3-dihydroindol-2-one] | 9.3 |
| COc1cc(C)c(C=C2C(=O)Nc3cc(NC(C)=O)ccc32)cc1C(C)C [Example 27, N-[3-(5-Isopropyl-4-methoxy-2-methyl-benzylidene)-2-oxo-2,3-dihydro-1H-indol-6-yl]-acetamide] | 26.8 |
| COc1c(C(C)C)cc(/C=C2/C(=O)Nc3cc(O)ccc32)cc1C(C)C [Example 4, 3-(3,5-Diisopropyl-4-methoxybenzylidene)-6-hydroxy-1,3-dihydroindol-2-one] | 26.6 |
| CC1(C)CCc2cc(/C=C3/C(=O)Nc4ccc(F)cc43)ccc2O1 [Example 23, 3-(2,2-Dimethylchroman-6-ylmethylene)-5-fluoro-1,3-dihydroindol-2-one] | 32.9 |
| COc1ccc(/C=C2/C(=O)Nc3cc(NC(C)=O)ccc32)cc1-c1ccsc1 [Example 18, N-[3-(4-Methoxy-3-thiophene-3-ylbenzylidene)-2-oxo-2,3-dihydro-1H-indol-6-yl]-acetamide] | > 50 |
| COc1ccc(/C=C2/C(=O)Nc3ccc(F)cc32)cc1C1CCCC1 [Example 11, 3-(3-Cyclopentyl-4-methoxybenzylidene)-5-fluoro-1,3-dihydroindol-2-one] | 23.3 |
| CC(C)c1cc(/C=C2/C(=O)Nc3ccc(Cl)cc32)cc(C(C)C)c1OCCN1CCOCC1 [Example 24, 5-chloro-3-[3,5-diisopropyl-4-(2-morpholin-4-ylethoxy)-benzylidene]-1,3-dihydroindol-2-one] | 7.5 |
| COc1cc(C)c(/C=C2/C(=O)Nc3ncccc32)cc1C(C)C [Example 45, 3-(5-Isopropyl-4-methoxy-2-methylbenzylidene)-1,3-dihydro-pyrrolo[2,3-b]pyridin-2-one] | > 50 |
| COc1c(C(C)C)cc(/C=C2/C(=O)Nc3ccc(N)cc32)cc1C(C)C [Example 20, 5-Amino-3-(3,5-diisopropyl-4-methoxy-benzylidene)-1,3-dihydroindol-2-one] | 30 |
| COc1cc(/C=C2/C(=O)Nc3ccccc32)c(-c2cccs2)cc1OC [Example 39, 3-(4,5-Dimethoxy-2-thiophen-2-ylbenzylidene)-1,3-dihydroindol-2-one] | 16.2 |
| COc1cc(C)c(C=C2C(=O)Nc3ccccc32)cc1C(C)C [Example 8, 3-(5-Isopropyl-4-methoxy-2-methylbenzylidene)-1,3-dihydroindol-2-one] | > 50 |

| Structure (SMILES) | IC50 [µM] |
| --- | --- |
| CC(=O)Nc1ccc2c(c1)NC(=O)/C2=C/c1ccc(OCCN2CCOCC2)c(-c2ccsc2)c1 [Example 50, N-{3-[4-(2-Morpholin-4-ylethoxy)-3-thiophen-3-ylbenzylidene]-2-oxo-2,3-dihydro-1H-indol-6-yl}-acetamide] | 37.9 |
| COc1c(C(C)C)cc(/C=C2/C(=O)Nc3cc(NC(C)=O)ccc32)cc1C(C)C [Example 3, N-[3-(3,5-Diisopropyl-4-methoxybenzylidene)-2-oxo-2,3-dihydro-1H-indol-6-yl]-acetamide] | 11 |
| CC(=O)Nc1ccc2c(c1)NC(=O)/C2=C/c1ccc(OCCN2CCOCC2)c(C2CCCCC2)c1 [Example 16, N-{3-[3-Cyclohexyl-4-(2-morpholin-4-ylethoxy)-benzylidene]-2-oxo-2,3-dihydro-1H-indol-6-yl}-acetamide] | 6.4 |
| CC1(C)CCc2cc(/C=C3/C(=O)Nc4ccc(Cl)cc43)ccc2O1 [Example 15, 5-Chloro-3-(2,2-dimethyl-chroman-6-ylmethylene)-1,3-dihydroindol-2-one] | 7.8 |
| COc1ccc2c(c1)/C(=C\c1cc(C(C)C)c(OC)c(C(C)C)c1)C(=O)N2 [Example 17, 3-(3,5-Diisopropyl-4-methoxybenzylidene)-5-methoxy-1,3-dihydroindol-2-one] | 7.4 |
| COc1cccc(-c2cc(OC)c(OC)cc2/C=C2/C(=O)Nc3ccc(Cl)cc32)c1 [Example 61, 5-Chloro-3-(4,5-3′-Trimethoxybiphenyl-2-ylmethylene)-1,3-dihydroindol-2-one] | > 50 |
| COc1c(C(C)C)cc(/C=C2/C(=O)Nc3ccc(C(C)=O)cc32)cc1C(C)C [Example 5, 5-Acetyl-3-(3,5-diisopropyl-4-methoxybenzylidene)-1,3dihydroindol-2-one] | 7.2 |
| COc1cc(/C=C2/C(=O)Nc3ccccc32)c(-c2ccc3ccccc3c2)cc1OC [Example 62, 3-(4,5-Dimethoxy-2-naphthalen-2-ylbenzylidene)-1,3-dihydroindol-2-one] | > 50 |
| CC(=O)Nc1ccc2c(c1)NC(=O)/C2=C/c1ccc(OCCN2CCOCC2)c(-c2cccs2)c1 [Example 40, N-{3-[4-(2-Morpholin-4-ylethoxy)-3-thiophen-2-ylbenzylidene]-2-oxo-2,3-dihydro-1H-indol-6-yl}-acetamide] | 28.6 |
| COc1cc(C)c(/C=C2/C(=O)Nc3ccc(Br)cc32)cc1C(C)C [Example 36, 5-Bromo-3-(5-isopropyl-4-methoxy-2-methyl-benzylidene)-1,3-dihydroindol-2-one] | 31 |
| COC(=O)c1ccc2c(c1)/C(=C\c1cc(C(C)C)c(OC)c(C(C)C)c1)C(=O)N2 [Example 6, 3-(3,5-Diisopropyl-4-methoxybenzylidene)-2-oxo-2,3-dihydro-1H-indole-5-carboxylic acid methyl ester] | 12 |
| COc1ccc(/C=C2/C(=O)Nc3ccccc32)cc1C1CCCC1 [Example 10, 3-(3-Cyclopentyl-4-methoxybenzylidene)-1,3-dihydroindol-2-one] | 29 |
| COc1ccc(/C=C2/C(=O)Nc3ccc(Cl)cc32)cc1-c1cccnc1 [Example 60] | > 50 |
| COc1ccc(/C=C2/C(=O)Nc3ccccc32)cc1C(C)C [Example 7, 3-(3-Isopropyl-4-methoxybenzylidene)-1,3-dihydroindol-2-one] | 24.5 |
| CC1(C)CCc2cc(C=C3C(=O)Nc4ccc(Br)cc43)ccc2O1 (racemic) [Example 34, 5-Bromo-3-(2,2-dimethylchroman-6-ylmethylene)-1,3-dihydroindol-2-one] | 11 |
| COc1ccc(/C=C2/C(=O)Nc3ccc(Cl)cc32)cc1-c1cccs1 [Example 59, 5-chloro-3-(4-Methoxy-3-thiophen-2-ylbenzylidene)-1,3-dihydroindol-2-one] | 44.5 |
